# Columns and labels:
# Gamma-secretase = test: Inhibitory concentration against Gamma-secretase in whole cell inhibition assay using SH-SY5Y cells; type: functional, cell-based, Homo sapiens
# Mus musculus [1] = test: Concentration of […] beta40 in plasma of transgenic APP-YAC mice 4 hr after 100 mg/kg peroral dose; type: functional, organism-based; parameters: dose 100 mg/kg
# Mus musculus [2] = test: Reduction of […] beta-40 in transgenic APP-YAC mice 4 hr after 100 mg/kg peroral dose; type: functional; settings: route oral
# Mus musculus [3] = test: Concentration of […] beta40 in brain of transgenic APP-YAC mice 4 hr after 100 mg/kg peroral dose; type: functional; settings: route oral
SMILES,IC50 (Gamma-secretase),further results
O=S(=O)(NC1C2CCC1Cc1cc(OCCN3CCOCC3)ccc1C2)c1ccc(Cl)s1 (stereo not given),5 nM,
CN(CC(=O)Nc1ccc2c(c1)CC1CCC(C2)C1NS(=O)(=O)c1ccc(Cl)s1)Cc1ccccc1 (stereo not given),226 nM,
O=S(=O)(NC1C2CCC1Cc1cc(OCCN3CCC(O)CC3)ccc1C2)c1ccc(Cl)s1 (stereo not given),623 nM,
O=S(=O)(NC1C2CCC1Cc1ccccc1C2)c1cccc(F)c1 (stereo not given),324 nM,
O=S(=O)(NC1C2CCC1Cc1cc(OCCN3CCC(O)C3)ccc1C2)c1ccc(Cl)s1 (stereo not given),209 nM,
CCc1ccc(S(=O)(=O)NC2C3CCC2Cc2ccccc2C3)cc1 (stereo not given),> 1000 nM,
CCCCCC(=O)Nc1ccc2c(c1)CC1CCC(C2)C1NS(=O)(=O)c1ccccc1 (stereo not given),> 1000 nM,
CC1CCCN1CCOc1ccc2c(c1)CC1CCC(C2)C1NS(=O)(=O)c1ccc(Cl)s1 (stereo not given),335 nM,
COCC(=O)Nc1ccc2c(c1)CC1CCC(C2)C1NS(=O)(=O)c1ccccc1 (stereo not given),> 1000 nM,
O=S(=O)(NC1C2CCC1Cc1cc(F)ccc1C2)c1ccccc1 (stereo not given),70 nM,
CCCCS(=O)(=O)NC1C2CCC1Cc1ccccc1C2 (stereo not given),610 nM,
CCCCCS(=O)(=O)NC1C2CCC1Cc1ccccc1C2 (stereo not given),> 1000 nM,
CC1CCCCN1CCOc1ccc2c(c1)CC1CCC(C2)C1NS(=O)(=O)c1ccc(Cl)s1 (stereo not given),227 nM,
O=S(=O)(NC1C2CCC1Cc1ccccc1C2)c1cc(Cl)c(Cl)s1 (stereo not given),> 1000 nM,
O=S(=O)(NC1C2CCC1Cc1cc(F)ccc1C2)c1ccc(Cl)s1 (stereo not given),29 nM,
O=C(Nc1ccc2c(c1)CC1CCC(C2)C1NS(=O)(=O)c1ccc(Cl)s1)OCc1ccccc1 (stereo not given),23 nM,
Nc1ccc2c(c1)CC1CCC(C2)C1NS(=O)(=O)c1ccccc1 (stereo not given),6000 nM,
O=C(Nc1ccc2c(c1)CC1CCC(C2)C1NS(=O)(=O)c1ccccc1)OCc1ccccc1 (stereo not given),74 nM,
O=C(Nc1ccc2c(c1)CC1CCC(C2)C1NS(=O)(=O)c1ccccc1)c1ccccc1 (stereo not given),> 1000 nM,
O=S(=O)(NC1C2CCC1Cc1cc(/C=C/CN3CCOCC3)ccc1C2)c1ccc(Cl)s1 (stereo in doubt; form 1) [listing 1 of 2 here],,Plasma concentration (Mus musculus [1]): > 7.91 µM
CCN(CC)CC(=O)Nc1ccc2c(c1)CC1CCC(C2)C1NS(=O)(=O)c1ccc(Cl)s1 (stereo not given),41 nM,

SMILES,IC50 (Gamma-secretase),further results
O=C(Nc1ccc2c(c1)CC1CCC(C2)C1NS(=O)(=O)c1ccccc1)OCc1cccc(Cl)c1 (stereo not given),412 nM,
O=S(=O)(NC1C2CCC1Cc1cc(/C=C/CN3CCOCC3)ccc1C2)c1ccc(Cl)s1 (racemic),5 nM,
O=S(=O)(NC1C2CCC1Cc1cc(O)ccc1C2)c1ccc(Cl)s1 (stereo not given),269 nM,
Cc1ccc(S(=O)(=O)NC2C3CCC2Cc2ccccc2C3)cc1 (stereo not given),651 nM,
O=C(Nc1ccc2c(c1)CC1CCC(C2)C1NS(=O)(=O)c1ccccc1)c1ccccn1 (stereo not given),75 nM,
O=C(CNCc1ccccc1)Nc1ccc2c(c1)CC1CCC(C2)C1NS(=O)(=O)c1ccc(Cl)s1 (stereo not given),3490 nM,
O=S(=O)(NC1C2CCC1Cc1ccccc1C2)c1ccc(Cl)cc1 (stereo not given),467 nM,
O=S(=O)(NC1C2CCC1Cc1ccccc1C2)c1ccccc1 (stereo not given),190 nM,
O=C(CN1CCCC1)Nc1ccc2c(c1)CC1CCC(C2)C1NS(=O)(=O)c1ccc(Cl)s1 (stereo not given),7 nM,
O=C(Nc1ccc2c(c1)CC1CCC(C2)C1NS(=O)(=O)c1ccc(Cl)s1)c1ccccn1 (stereo not given),12 nM,
O=C(CN1CCN(c2ccccc2)CC1)Nc1ccc2c(c1)CC1CCC(C2)C1NS(=O)(=O)c1ccc(Cl)s1 (stereo not given),5 nM,
CC(C)(C)c1ccc(S(=O)(=O)NC2C3CCC2Cc2ccccc2C3)cc1 (stereo not given),> 1000 nM,
CCS(=O)(=O)NC1C2CCC1Cc1ccccc1C2 (stereo not given),> 1000 nM,
O=S(=O)(NC1C2CCC1Cc1ccccc1C2)c1cccs1 (stereo not given),50 nM,
O=S(=O)(NC1C2CCC1Cc1ccccc1C2)c1ccccc1F (stereo not given),239 nM,
CCCS(=O)(=O)NC1C2CCC1Cc1ccccc1C2 (stereo not given),721 nM,
O=C(CN1CCOCC1)Nc1ccc2c(c1)CC1CCC(C2)C1NS(=O)(=O)c1ccc(Cl)s1 (stereo not given),7 nM,
O=S(=O)(NC1C2CCC1Cc1c(F)cccc1C2)c1ccc(Cl)s1 (stereo not given),34 nM,
O=C(CCc1ccccc1)Nc1ccc2c(c1)CC1CCC(C2)C1NS(=O)(=O)c1ccccc1 (stereo not given),> 1000 nM,
O=C(Nc1ccc2c(c1)CC1CCC(C2)C1NS(=O)(=O)c1ccccc1)c1cccnc1 (stereo not given),> 1000 nM,
O=C(Nc1ccc2c(c1)CC1CCC(C2)C1NS(=O)(=O)c1ccccc1)OCc1ccc(Cl)cc1 (stereo not given),16 nM,

SMILES,IC50 (Gamma-secretase),further results
O=C(CN1CCCCC1)Nc1ccc2c(c1)CC1CCC(C2)C1NS(=O)(=O)c1ccc(Cl)s1 (stereo not given),6 nM,
CC(C)CCCC(=O)Nc1ccc2c(c1)CC1CCC(C2)C1NS(=O)(=O)c1ccccc1 (stereo not given),535 nM,
O=S(=O)(NC1C2CCC1Cc1cc(/C=C/CN3CCN(c4ccccc4)CC3)ccc1C2)c1ccc(Cl)s1 (stereo not given),21 nM,
CN1CCN(C/C=C/c2ccc3c(c2)CC2CCC(C3)C2NS(=O)(=O)c2ccc(Cl)s2)CC1 (stereo not given),39 nM,
O=S(=O)(NC1C2CCC1Cc1ccccc1C2)c1ccc(C(F)(F)F)cc1 (stereo not given),> 1000 nM,
CC(=O)Nc1ccc2c(c1)CC1CCC(C2)C1NS(=O)(=O)c1ccccc1 (stereo not given),> 1000 nM,
O=S(=O)(NC1C2CCC1Cc1c(Cl)cccc1C2)c1ccc(Cl)s1 (stereo not given),175 nM,
O=S(=O)(NC1C2CCC1Cc1cc(/C=C/Cn3ccnc3)ccc1C2)c1ccc(Cl)s1 (stereo not given),15 nM,
CN1CCN(CC(=O)Nc2ccc3c(c2)CC2CCC(C3)C2NS(=O)(=O)c2ccc(Cl)s2)CC1 (stereo not given),69 nM,
O=S(=O)(NC1C2CCC1Cc1cc(OCCN3CCCCC3)ccc1C2)c1ccc(Cl)s1 (stereo not given),73 nM,
O=S(=O)(NC1C2CCC1Cc1ccccc1C2)c1ccc(F)cc1 (stereo not given),129 nM,
O=C(Nc1ccc2c(c1)CC1CCC(C2)C1NS(=O)(=O)c1ccccc1)OCc1ccccc1Cl (stereo not given),153 nM,
COc1ccc2c(c1)CC1CCC(C2)C1NS(=O)(=O)c1ccc(Cl)s1 (stereo not given),490 nM,
O=S(=O)(NC1C2CCC1Cc1cc(/C=C/CN3CCCCC3)ccc1C2)c1ccc(Cl)s1 (stereo not given),152 nM,
O=S(=O)(NC1C2CCC1Cc1cc(/C=C/CN3CCOCC3)ccc1C2)c1ccc(Cl)s1 (stereo in doubt; form 1) [listing 2 of 2 here],1 nM,Reduction (Mus musculus [2]): 50%; Brain concentration (Mus musculus [3]): 16.7 µM
O=[N+]([O-])c1ccc(S(=O)(=O)NC2C3CCC2Cc2ccccc2C3)cc1 (stereo not given),> 1000 nM,
Cc1cccc(S(=O)(=O)NC2C3CCC2Cc2ccccc2C3)c1 (stereo not given),> 1000 nM,
O=S(=O)(NC1C2CCC1Cc1ccccc1C2)c1ccc(Cl)s1 (stereo not given),62 nM,
O=S(=O)(NC1C2CCC1Cc1cc(Cl)ccc1C2)c1ccc(Cl)s1 (stereo not given),146 nM,
O=C(Nc1ccc2c(c1)CC1CCC(C2)C1NS(=O)(=O)c1ccccc1)c1ccncc1 (stereo not given),> 1000 nM,
O=S(=O)(NC1C2CCC1Cc1cc(/C=C/CN3CCOCC3)ccc1C2)c1ccc(Cl)s1 (stereo in doubt; form 2),315 nM,

# — ChEMBL document CHEMBL1143656, “A novel series of potent gamma-secretase inhibitors based on a benzobicyclo[4.2.1]nonane core” (Bioorg Med Chem Lett, 2005)
